In patent publication US20100267697A1, “ION CHANNEL MODULATORS” (Wyeth, priority 2006, published 2010) one finds IC50 data, which are given here for 13 compounds.

Experiment [1] concerns the target Cav2.2 (UniProt Q02294). Nature of the experiment: Oocyte assay (Xenopus oocyte heterologous expression, current at fifth pulse P5). To be noted: Xenopus oocytes; fifth pulse (P5) of 5 Hz train, holding potential −100 mV. The format is cell-based. The procedure:
The assay was performed on various calcium channels (e.g., Cav2.2 subfamily) whereby the modulation of the calcium channel was measured for each tested compound.

Experiment [2] addresses T1, Cav2.2 (Homo sapiens, UniProt Q00975).
T1 construct: expressed in transfected cells; host or cells: HEK-293T/17 (transient, FuGENE 6)
The experiment in a line: HEK assay (whole-cell patch clamp, transiently transfected HEK-293T/17 cells, pulses P1 and P5). The format is cell-based. To be noted: holding potential −100 mV. The method in brief: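 Whole-cell voltage clamp of HEK-293T/17 cells transiently transfected via FuGENE 6, then grown 24 h in 1% serum before recording. From −100 mV holding, trains of five 20–30 ms steps to about +10 mV at 5 Hz, repeated every 30 s; steady-state IC50s taken at first (P1) and fifth (P5) pulses to gauge use-dependent block.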
(In patch-clamp work, channel activity is measured electrically.)

Where [3] appears, read: fifth pulse (P5) of 5 Hz train, read-out: HEK Cav2.2 P5 IC50.
The mark [4] stands for this setting: first pulse (P1) of 5 Hz train, read-out: HEK Cav2.2 P1 IC50.

Like-named read-outs stand apart in the source and are kept apart here.

T1 sequence (Q00975 whole entry): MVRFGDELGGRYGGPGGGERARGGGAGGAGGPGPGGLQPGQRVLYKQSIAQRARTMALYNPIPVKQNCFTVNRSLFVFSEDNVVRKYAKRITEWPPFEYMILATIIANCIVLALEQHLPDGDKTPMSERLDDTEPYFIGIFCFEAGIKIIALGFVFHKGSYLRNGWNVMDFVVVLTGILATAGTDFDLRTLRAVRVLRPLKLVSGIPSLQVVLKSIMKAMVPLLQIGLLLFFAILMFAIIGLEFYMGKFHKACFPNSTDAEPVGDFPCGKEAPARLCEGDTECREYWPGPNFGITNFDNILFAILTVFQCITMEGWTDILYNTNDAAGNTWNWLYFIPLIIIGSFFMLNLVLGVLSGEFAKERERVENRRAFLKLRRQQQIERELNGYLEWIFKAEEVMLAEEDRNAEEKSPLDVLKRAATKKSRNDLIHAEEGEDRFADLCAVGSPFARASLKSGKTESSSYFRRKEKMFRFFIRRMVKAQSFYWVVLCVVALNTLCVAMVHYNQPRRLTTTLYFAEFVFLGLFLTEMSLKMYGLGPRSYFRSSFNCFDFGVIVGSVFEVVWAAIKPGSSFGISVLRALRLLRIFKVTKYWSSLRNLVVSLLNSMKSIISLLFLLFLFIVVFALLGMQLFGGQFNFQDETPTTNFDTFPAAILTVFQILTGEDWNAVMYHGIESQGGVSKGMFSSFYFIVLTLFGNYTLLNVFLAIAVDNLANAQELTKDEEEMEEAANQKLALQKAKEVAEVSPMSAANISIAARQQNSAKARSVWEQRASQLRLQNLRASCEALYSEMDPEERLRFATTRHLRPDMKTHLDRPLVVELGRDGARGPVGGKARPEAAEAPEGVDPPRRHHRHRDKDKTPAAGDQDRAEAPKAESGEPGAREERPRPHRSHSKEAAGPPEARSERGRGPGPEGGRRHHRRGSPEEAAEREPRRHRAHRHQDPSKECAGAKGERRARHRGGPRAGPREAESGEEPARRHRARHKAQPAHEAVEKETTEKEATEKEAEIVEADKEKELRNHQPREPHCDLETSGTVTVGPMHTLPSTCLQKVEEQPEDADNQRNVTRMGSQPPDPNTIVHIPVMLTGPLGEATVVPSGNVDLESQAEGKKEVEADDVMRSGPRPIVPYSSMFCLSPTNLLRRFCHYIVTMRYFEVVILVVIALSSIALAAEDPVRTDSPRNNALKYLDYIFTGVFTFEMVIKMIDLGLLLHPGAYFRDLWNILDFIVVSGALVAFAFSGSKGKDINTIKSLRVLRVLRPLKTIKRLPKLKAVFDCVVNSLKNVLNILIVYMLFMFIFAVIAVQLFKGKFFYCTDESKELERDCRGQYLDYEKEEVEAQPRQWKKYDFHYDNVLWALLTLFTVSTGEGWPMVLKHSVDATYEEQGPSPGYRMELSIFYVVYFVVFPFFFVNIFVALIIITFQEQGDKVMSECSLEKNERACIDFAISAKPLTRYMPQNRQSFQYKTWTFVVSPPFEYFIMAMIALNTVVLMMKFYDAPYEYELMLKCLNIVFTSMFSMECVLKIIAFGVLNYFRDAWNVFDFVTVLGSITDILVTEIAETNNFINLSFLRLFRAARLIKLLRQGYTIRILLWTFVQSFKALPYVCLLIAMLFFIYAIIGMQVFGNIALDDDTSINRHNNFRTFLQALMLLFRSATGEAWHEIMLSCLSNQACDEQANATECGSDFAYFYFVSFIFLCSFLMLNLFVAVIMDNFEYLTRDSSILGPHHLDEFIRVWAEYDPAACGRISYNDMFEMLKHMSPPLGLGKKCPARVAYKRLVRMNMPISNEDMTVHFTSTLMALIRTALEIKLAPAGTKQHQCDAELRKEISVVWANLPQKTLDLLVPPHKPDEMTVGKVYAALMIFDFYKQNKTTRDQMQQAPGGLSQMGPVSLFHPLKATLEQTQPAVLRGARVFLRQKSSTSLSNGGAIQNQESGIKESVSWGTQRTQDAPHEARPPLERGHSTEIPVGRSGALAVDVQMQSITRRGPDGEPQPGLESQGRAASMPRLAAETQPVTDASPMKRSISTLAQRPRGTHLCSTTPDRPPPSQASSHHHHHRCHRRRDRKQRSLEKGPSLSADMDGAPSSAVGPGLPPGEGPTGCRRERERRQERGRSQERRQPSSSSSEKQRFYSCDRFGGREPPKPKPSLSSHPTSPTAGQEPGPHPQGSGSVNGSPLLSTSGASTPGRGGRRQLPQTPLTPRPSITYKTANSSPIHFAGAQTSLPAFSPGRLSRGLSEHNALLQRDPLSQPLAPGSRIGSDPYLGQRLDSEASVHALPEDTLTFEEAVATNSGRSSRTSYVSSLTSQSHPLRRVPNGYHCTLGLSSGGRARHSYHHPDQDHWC
T1 sequence (P54284 whole entry partner): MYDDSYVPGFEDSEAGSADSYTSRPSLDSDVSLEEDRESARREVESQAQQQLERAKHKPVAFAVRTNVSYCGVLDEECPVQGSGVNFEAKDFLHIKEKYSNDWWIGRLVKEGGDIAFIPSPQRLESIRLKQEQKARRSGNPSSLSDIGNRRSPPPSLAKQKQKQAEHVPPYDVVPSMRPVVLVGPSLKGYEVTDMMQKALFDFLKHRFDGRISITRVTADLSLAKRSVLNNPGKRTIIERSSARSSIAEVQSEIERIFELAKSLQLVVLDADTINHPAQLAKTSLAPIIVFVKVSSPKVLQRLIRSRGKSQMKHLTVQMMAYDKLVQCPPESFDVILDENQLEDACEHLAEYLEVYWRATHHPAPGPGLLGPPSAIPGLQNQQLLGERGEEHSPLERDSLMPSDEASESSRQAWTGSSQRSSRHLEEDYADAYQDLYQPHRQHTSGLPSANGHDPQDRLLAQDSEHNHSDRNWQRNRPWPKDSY
T1 sequence (P54289 25-946 partner limits assumed): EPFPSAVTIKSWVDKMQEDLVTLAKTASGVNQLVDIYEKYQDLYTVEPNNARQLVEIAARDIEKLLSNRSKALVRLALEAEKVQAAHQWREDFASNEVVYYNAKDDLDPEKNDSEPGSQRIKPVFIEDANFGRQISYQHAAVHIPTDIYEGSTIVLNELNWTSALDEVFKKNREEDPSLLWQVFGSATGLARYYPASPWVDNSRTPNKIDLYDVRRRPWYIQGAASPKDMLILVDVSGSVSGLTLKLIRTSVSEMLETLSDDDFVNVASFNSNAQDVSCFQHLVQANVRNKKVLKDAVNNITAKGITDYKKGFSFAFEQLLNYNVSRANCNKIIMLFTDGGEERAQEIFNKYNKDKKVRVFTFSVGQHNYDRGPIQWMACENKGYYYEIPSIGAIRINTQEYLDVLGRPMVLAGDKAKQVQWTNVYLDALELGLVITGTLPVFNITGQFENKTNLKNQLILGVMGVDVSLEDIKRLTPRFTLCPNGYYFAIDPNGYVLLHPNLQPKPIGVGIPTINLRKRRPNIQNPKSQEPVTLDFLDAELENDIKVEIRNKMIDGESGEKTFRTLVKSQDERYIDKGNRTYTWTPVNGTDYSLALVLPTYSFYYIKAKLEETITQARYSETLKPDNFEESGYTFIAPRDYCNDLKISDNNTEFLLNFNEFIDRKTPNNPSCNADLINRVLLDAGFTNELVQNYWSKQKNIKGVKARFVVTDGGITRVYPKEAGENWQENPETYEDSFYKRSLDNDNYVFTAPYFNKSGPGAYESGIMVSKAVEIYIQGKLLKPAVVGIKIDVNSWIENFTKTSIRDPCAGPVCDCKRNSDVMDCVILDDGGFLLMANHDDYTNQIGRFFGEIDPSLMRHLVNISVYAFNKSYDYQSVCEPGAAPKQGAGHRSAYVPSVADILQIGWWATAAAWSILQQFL
T1 sequence (P54289 947-1103 partner limits assumed): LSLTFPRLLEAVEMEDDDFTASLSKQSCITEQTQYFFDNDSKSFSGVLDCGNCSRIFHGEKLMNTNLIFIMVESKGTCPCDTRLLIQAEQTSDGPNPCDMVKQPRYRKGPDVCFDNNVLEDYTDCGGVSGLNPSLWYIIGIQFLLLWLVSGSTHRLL

In general, IC50 refers to the concentration that inhibits the measured activity by half. With `Cc1cc(C)cc(N(Cc2ccc(N3CCN(C)CC3)nc2)C(=O)C(C)(C)C)c1` [Compound 32, N-(3,5-dimethylphenyl)-2,2-dimethyl-N-[6-(4-methyl-piperazin-1-yl)-pyridin-3-ylmethyl]-propionamide], the IC50 in experiment [1] is 21.2 µM; in experiment [2] (setting [3]), 2.6 µM; in experiment [2] (setting [4]) it was 24.5 µM.
For `CC(C)(C)C(=O)N(Cc1ccc(N2CCC(N3CCOCC3)CC2)nc1)c1ccc(F)cc1` [Compound 33, N-(4-Fluorophenyl)-2,2-dimethyl-N-(4-morpholin-4-yl-3,4,5,6-tetrahydro-2H-[1,2′]bipyridinyl-5′-ylmethyl)-propionamide] the same measures were 22.9 µM, 11.5 µM and 37.6 µM.
In the case of `CC(C)(C)C(=O)N(Cc1ccc(N2CCC(N3CCCC3)CC2)nc1)c1ccc(F)cc1` [Compound 34, N-(4-Fluorophenyl)-2,2-dimethyl-N-(4-pyrrolidin-1-yl-3,4,5,6-tetrahydro-2H-[1,2′]bipyridinyl-5′-ylmethyl)-propionamide], the IC50 was 19.6 µM in experiment [1], 2.4 µM in experiment [2] (setting [3]) and 5.5 µM in experiment [2] (setting [4]).
For the compound `CCC(C)(C)C(=O)N(Cc1ccc(N2CCN(C)CC2)nc1)c1ccccc1C(C)C` [Compound 35, N-(2-Isopropyl-phenyl)-2,2-dimethyl-N-[6-(4-methyl-piperazin-1-yl)-pyridin-3-ylmethyl]-butyramide], the IC50 in experiment [1] came out at 13.2 µM; in experiment [2] (setting [3]), 1.4 µM; in experiment [2] (setting [4]) it was 4.4 µM.
As for `CCN(CC)c1nc(CN(C(=O)C(C)(C)C)c2ccc(F)cc2)cs1` [Compound 64, N-(2-Diethylamino-thiazol-4-ylmethyl)-N-(4-fluorophenyl)-2,2-dimethyl-propionamide], the IC50 came out at 18.3 µM in experiment [1], 2.4 µM in experiment [2] (setting [3]) and 6 µM in experiment [2] (setting [4]).
For `CC(C)(C)C(=O)N(Cc1ccc(N2CCCCC2)nc1)c1ccc(F)cc1` [Compound 70, N-(4-Fluorophenyl)-2,2-dimethyl-N-(3,4,5,6-tetrahydro-2H-[1,2′]bipyridinyl-5′-ylmethyl)-propionamide], the IC50 is 9.8 µM in experiment [1], 1.9 µM in experiment [2] (setting [3]) and 12.1 µM in experiment [2] (setting [4]).
In the case of `CN(C)c1ccc(N(Cc2csc(N(C)c3ccc(F)cc3)n2)C(=O)C(C)(C)C)cc1` [Compound 81, N-(4-Dimethylamino-phenyl)-N-{2-[(4-fluorophenyl)-methyl-amino]-thiazol-4-ylmethyl}-2,2-dimethyl-propionamide], the IC50 in experiment [1] was 1.7 µM; in experiment [2] (setting [3]) it was 0.6 µM; in experiment [2] (setting [4]) it was 2 µM.
As for `CCN(c1nc(CN(C(=O)C(C)(C)C)c2ccc(F)cc2)cs1)C1CC1` [Compound 83, N-[2-(Cyclopropyl(ethyl)amino)-thiazol-4-ylmethyl]-N-(4-fluorophenyl)-2,2-dimethyl-propionamide], the IC50 worked out at 7.1 µM in experiment [1], 1 µM in experiment [2] (setting [3]) and 3.3 µM in experiment [2] (setting [4]).
The corresponding values for `CCN(CC)c1ncc(CN(C(=O)C(C)(C)C)c2ccc(F)cc2)cn1` [Compound 84, N-(2-Diethylamino-pyrimidin-5-ylmethyl)-N-(4-fluorophenyl)-2,2-dimethyl-propionamide] are 15.6 µM, 1.2 µM and 4.3 µM.
For `CN(C)c1ccc(N(Cc2cnc(N3CCCCC3)nc2)C(=O)C(C)(C)C)cc1` [Compound 85, N-(4-Dimethylamino-phenyl)-2,2-dimethyl-N-(2-piperidin-1-yl-pyrimidin-5-ylmethyl)-propionamide] the same measures were 16.2 µM, 1.9 µM and 7.4 µM.
In the case of `CN(c1ccccn1)c1nc(CN(C(=O)C(C)(C)C)c2ccc(F)cc2)cs1` [Compound 93, N-(4-Fluorophenyl)-2,2-dimethyl-N-[2-(methyl-pyridin-2-yl-amino)-thiazol-4-ylmethyl]-propionamide], the IC50 was determined as 22.8 µM in experiment [1], 0.4 µM in experiment [2] (setting [3]) and 0.8 µM in experiment [2] (setting [4]).
Consider `CN1CCN(c2ccc(CN(C(=O)C3CCCCC3)c3ccc(F)cc3)cn2)CC1` [Compound 104, Cyclohexanecarboxylic acid (4-fluorophenyl)-[6-(4-methyl-piperazin-1-yl)-pyridin-3-ylmethyl]-amide], for which the results for the IC50 in experiment [1], in experiment [2] (setting [3]) and in experiment [2] (setting [4]) were 22 µM, 2.5 µM and 14.1 µM, respectively.
For the compound `O=C(C1CCOC1)N(Cc1ccc(N2CCN(c3ccccn3)CC2)nc1)c1ccc(F)cc1` (stereo not drawn) [Compound 111, Tetrahydro-furan-3-carboxylic acid (4-fluorophenyl)-[6-(4-pyridin-2-yl-piperazin-1-yl)-pyridin-3-ylmethyl]-amide], the IC50 turned out to be 23.2 µM in experiment [1], 2.1 µM in experiment [2] (setting [3]) and 18.6 µM in experiment [2] (setting [4]).
